What was measured:
[1] = Clearance in healthy human at 250 mg, iv administered as single dose as 1 hr iv infusion; assay type: ADME, organism-based; conditions: in vivo
[2] = AUC (0 to infinity) in healthy human at 1000 mg, iv administered as single dose as 1 hr iv infusion; assay type: ADME, organism-based; set-up: dose 1000 mg, route intravenous, time infinity; conditions: plasma
[3] = Renal clearance in healthy human at 500 mg, iv administered as single dose as 1 hr iv infusion; assay type: ADME, organism-based, Kidney; conditions: in vivo, read-out: CL_renal
[4] = Tmax in healthy human at 250 mg, iv administered as single dose as 1 hr iv infusion; assay type: ADME, organism-based; conditions: in vivo
[5] = Clearance in healthy human at 1500 mg, iv administered as 1 hr infusion every 12 hrs for 10 days measured on day 10; assay type: ADME, organism-based; conditions: in vivo
[6] = Volume of distribution at steady state in healthy human at 1000 mg, iv administered as 1 hr infusion every 8 hrs for 10 days measured on day 10; assay type: ADME, organism-based; conditions: in vivo
[7] = Half-life in plasma of healthy human 1500 mg administered as single ascending dose, iv for 1 hr infusion; assay type: ADME, organism-based
[8] = test system: Homo sapiens; test: Toxicity in healthy human assessed as occurrence of headache at 1000 mg, iv administered as single dose as 1 hr iv infusion; assay type: organism-based; conditions: in vivo
[9] = Mean residence time in healthy human at 500 mg, iv administered as single dose as 1 hr iv infusion; assay type: ADME, organism-based; conditions: in vivo
[10] = Volume of distribution at steady state in healthy human at 500 mg, iv administered as 1 hr infusion every 8 hrs for 10 days measured on day 1; assay type: ADME, organism-based; conditions: in vivo
[11] = Volume of distribution at steady state in healthy human at 1500 mg, iv administered as single dose as 1 hr iv infusion; assay type: ADME, organism-based; conditions: in vivo
[12] = Renal clearance in healthy human at 1500 mg, iv administered as 1 hr infusion every 12 hrs for 10 days measured on day 10; assay type: ADME, organism-based, Kidney; conditions: in vivo, read-out: CL_renal
[13] = Mean residence time in healthy human at 500 mg, iv administered as 1 hr infusion every 8 hrs for 10 days measured on day 10; assay type: ADME, organism-based; conditions: in vivo
[14] = Drug recovery in urine of healthy human at 1000 mg, iv administered as single dose as 1 hr iv infusion after 24 hrs; assay type: ADME, organism-based; conditions: read-out: Activity
[15] = Cmax in healthy human at 1500 mg, iv administered as 1 hr infusion every 12 hrs for 10 days measured on day 10; assay type: ADME, organism-based; set-up: dose 1500 mg, route intravenous; conditions: in vivo
[16] = Drug recovery in urine of healthy human at 1500 mg, iv administered as single dose as 1 hr iv infusion after 24 hrs; assay type: ADME, organism-based; conditions: read-out: Activity
[17] = Tmax in healthy human at 1000 mg, iv administered as 1 hr infusion every 8 hrs for 10 days measured on day 10; assay type: ADME, organism-based; conditions: in vivo
[18] = Drug recovery in urine of healthy human at 500 mg, iv administered as single dose as 1 hr iv infusion after 24 hrs; assay type: ADME, organism-based; conditions: read-out: Activity
[19] = Half-life in plasma of healthy human 1000 mg, iv administered as 1 hr infusion every 8 hrs for 10 days measured on day 1; assay type: ADME, organism-based
[20] = test system: Homo sapiens; test: Toxicity in healthy human assessed as occurrence of somnolence at 1000 mg, iv administered as single dose as 1 hr iv infusion; assay type: organism-based; conditions: in vivo
[21] = Drug recovery in urine of healthy human at 1500 mg, iv administered as 1 hr infusion every 12 hrs for 10 days measured on day 1; assay type: ADME, organism-based; conditions: read-out: Activity
[22] = Clearance in healthy human at 1000 mg, iv administered as 1 hr infusion every 8 hrs for 10 days measured on day 1; assay type: ADME, organism-based; conditions: in vivo
[23] = Drug recovery in urine of healthy human at 500 mg, iv administered as 1 hr infusion every 8 hrs for 10 days measured on day 10; assay type: ADME, organism-based; conditions: read-out: Activity
[24] = AUC (0 to infinity) in healthy human at 1500 mg, iv administered as single dose as 1 hr iv infusion; assay type: ADME, organism-based; set-up: dose 1500 mg, time infinity, route intravenous; conditions: plasma
[25] = Half-life in plasma of healthy human 500 mg, iv administered as 1 hr infusion every 8 hrs for 10 days measured on day 1; assay type: ADME, organism-based
[26] = Half-life in plasma of healthy human 1000 mg administered as single ascending dose, iv for 1 hr infusion; assay type: ADME, organism-based
[27] = Clearance in healthy human at 1000 mg, iv administered as single dose as 1 hr iv infusion; assay type: ADME, organism-based; conditions: in vivo
[28] = Cmax in healthy human at 500 mg, iv administered as 1 hr infusion every 8 hrs for 10 days measured on day 10; assay type: ADME, organism-based; set-up: dose 500 mg, route intravenous; conditions: in vivo
[29] = Clearance in healthy human at 500 mg, iv administered as 1 hr infusion every 8 hrs for 10 days measured on day 1; assay type: ADME, organism-based; conditions: in vivo
[30] = Cmax in healthy human at 1000 mg, iv administered as 1 hr infusion every 8 hrs for 10 days measured on day 1; assay type: ADME, organism-based; set-up: dose 1000 mg, route intravenous; conditions: in vivo
[31] = Mean residence time in healthy human at 1000 mg, iv administered as 1 hr infusion every 8 hrs for 10 days measured on day 1; assay type: ADME, organism-based; conditions: in vivo
[32] = Tmax in healthy human at 500 mg, iv administered as 1 hr infusion every 8 hrs for 10 days measured on day 1; assay type: ADME, organism-based; conditions: in vivo
[33] = Cmax in healthy human at 250 mg, iv administered as single dose as 1 hr iv infusion; assay type: ADME, organism-based; set-up: dose 250 mg, route intravenous; conditions: in vivo
[34] = Tmax in healthy human at 1000 mg, iv administered as single dose as 1 hr iv infusion; assay type: ADME, organism-based; conditions: in vivo
[35] = Volume of distribution at steady state in healthy human at 500 mg, iv administered as 1 hr infusion every 8 hrs for 10 days measured on day 10; assay type: ADME, organism-based; conditions: in vivo
[36] = Tmax in healthy human at 1500 mg, iv administered as single dose as 1 hr iv infusion; assay type: ADME, organism-based; conditions: in vivo
[37] = test system: Homo sapiens; test: Toxicity in healthy human assessed as occurrence of flushing at 1000 mg, iv administered as 1 hr infusion every 8 hrs for 10 days; assay type: organism-based; conditions: in vivo
[38] = Half-life in plasma of healthy human 1000 mg, iv administered as 1 hr infusion every 8 hrs for 10 days measured on day 10; assay type: ADME, organism-based
[39] = Drug recovery in urine of healthy human at 250 mg, iv administered as single dose as 1 hr iv infusion after 24 hrs; assay type: ADME, organism-based; conditions: read-out: Activity
[40] = Cmax in healthy human at 1000 mg, iv administered as single dose as 1 hr iv infusion; assay type: ADME, organism-based; set-up: dose 1000 mg, route intravenous; conditions: in vivo
[41] = AUC (0 to infinity) in healthy human at 500 mg, iv administered as 1 hr infusion every 8 hrs for 10 days measured on day 1; assay type: ADME, organism-based; set-up: dose 500 mg, route intravenous, time infinity; conditions: plasma
[42] = Drug recovery in urine of healthy human at 500 mg, iv administered as 1 hr infusion every 8 hrs for 10 days measured on day 1; assay type: ADME, organism-based; conditions: read-out: Activity
[43] = Mean residence time in healthy human at 1500 mg, iv administered as 1 hr infusion every 12 hrs for 10 days measured on day 10; assay type: ADME, organism-based; conditions: in vivo
[44] = Drug recovery in urine of healthy human at 2000 mg, iv administered as single dose as 1 hr iv infusion after 24 hrs; assay type: ADME, organism-based; conditions: read-out: Activity
[45] = Mean residence time in healthy human at 1000 mg, iv administered as 1 hr infusion every 8 hrs for 10 days measured on day 10; assay type: ADME, organism-based; conditions: in vivo
[46] = Renal clearance in healthy human at 1000 mg, iv administered as 1 hr infusion every 8 hrs for 10 days measured on day 10; assay type: ADME, organism-based, Kidney; conditions: in vivo, read-out: CL_renal

SMILES: Cn1c(N)c(NC(=O)NCCN)c[n+]1CC1=C(C(=O)O)N2C(=O)[C@@H](NC(=O)/C(=N\OC(C)(C)C(=O)[O-])c3nsc(N)n3)[C@H]2SC1 [CEFTOLOZANE]
- clearance [1]: 104 mL/min
- AUC(0-inf) [2]: 152 µg·h/mL
- CL renal at 1 h [3]: 90.4 mL/min
- Tmax [4]: 1.03 h
- clearance [5]: 121 mL/min
- Vd [6]: 17.1 L
- half-life [7]: 2.62 h
- Activity [8]: Non-toxic
- MRT [9]: 2.5 h
- Vd [10]: 13.8 L
- Vd [11]: 17.6 L
- CL renal [12]: 127 mL/min
- MRT [13]: 2.32 h
- dose excreted at 24 h [14]: 85.2%
- Cmax [15]: 82.6 µg/mL
- dose excreted at 24 h [16]: 93.4%
- Tmax [17]: 1.05 h
- dose excreted at 24 h [18]: 91.2%
- half-life [19]: 2.38 h
- Activity [20]: Non-toxic
- dose excreted at 1 day [21]: 104%
- clearance [22]: 112 mL/min
- dose excreted at 10 day [23]: 84.6%
- AUC(0-inf) [24]: 243 µg·h/mL
- half-life [25]: 2.21 h
- half-life [26]: 2.25 h
- clearance [27]: 110 mL/min
- Cmax [28]: 33.3 µg/mL
- clearance [29]: 94.6 mL/min
- Cmax [30]: 52.8 µg/mL
- MRT [31]: 2.64 h
- Tmax [32]: 1.03 h
- Cmax [33]: 16.5 µg/mL
- Tmax [34]: 1.05 h
- Vd [35]: 14 L
- Tmax [36]: 1.03 h
- Activity [37]: Non-toxic
- half-life [38]: 2.69 h
- dose excreted at 24 h [39]: 97.1%
- Cmax [40]: 58.4 µg/mL
- AUC(0-inf) [41]: 88.1 µg·h/mL
- dose excreted at 1 day [42]: 82.9%
- MRT [43]: 2.5 h
- dose excreted at 24 h [44]: 97.7%
- MRT [45]: 2.45 h
- CL renal [46]: 111 mL/min

Reference: ChEMBL document CHEMBL1275247, “Pharmacokinetics and safety of CXA-101, a new antipseudomonal cephalosporin, in healthy adult male and female subjects receiving single- and multiple-dose intravenous infusions” (Antimicrob Agents Chemother, 2010)
